According to US8399676B2, “Piperidine derivatives” (Hoffman-La Roche Inc., priority 2009, dated 2013):
Structures can show the parent of a compound that is named as a salt.

molecular target: T1, human HSL (Homo sapiens, UniProt Q05469); assay: Human Hormone-Sensitive Lipase (HSL) enzyme inhibition assay (colorimetric, DMPT substrate); format: biochemical; conditions: read-out: HSL hum IC50
T1 construct: generate a full length human HSL ORF with a 3′-His6 tag; His6 (C); made in house; host or cells: High 5 insect cells (baculovirus, pFast-BAC)
T1 sequence (Q05469 1-1076): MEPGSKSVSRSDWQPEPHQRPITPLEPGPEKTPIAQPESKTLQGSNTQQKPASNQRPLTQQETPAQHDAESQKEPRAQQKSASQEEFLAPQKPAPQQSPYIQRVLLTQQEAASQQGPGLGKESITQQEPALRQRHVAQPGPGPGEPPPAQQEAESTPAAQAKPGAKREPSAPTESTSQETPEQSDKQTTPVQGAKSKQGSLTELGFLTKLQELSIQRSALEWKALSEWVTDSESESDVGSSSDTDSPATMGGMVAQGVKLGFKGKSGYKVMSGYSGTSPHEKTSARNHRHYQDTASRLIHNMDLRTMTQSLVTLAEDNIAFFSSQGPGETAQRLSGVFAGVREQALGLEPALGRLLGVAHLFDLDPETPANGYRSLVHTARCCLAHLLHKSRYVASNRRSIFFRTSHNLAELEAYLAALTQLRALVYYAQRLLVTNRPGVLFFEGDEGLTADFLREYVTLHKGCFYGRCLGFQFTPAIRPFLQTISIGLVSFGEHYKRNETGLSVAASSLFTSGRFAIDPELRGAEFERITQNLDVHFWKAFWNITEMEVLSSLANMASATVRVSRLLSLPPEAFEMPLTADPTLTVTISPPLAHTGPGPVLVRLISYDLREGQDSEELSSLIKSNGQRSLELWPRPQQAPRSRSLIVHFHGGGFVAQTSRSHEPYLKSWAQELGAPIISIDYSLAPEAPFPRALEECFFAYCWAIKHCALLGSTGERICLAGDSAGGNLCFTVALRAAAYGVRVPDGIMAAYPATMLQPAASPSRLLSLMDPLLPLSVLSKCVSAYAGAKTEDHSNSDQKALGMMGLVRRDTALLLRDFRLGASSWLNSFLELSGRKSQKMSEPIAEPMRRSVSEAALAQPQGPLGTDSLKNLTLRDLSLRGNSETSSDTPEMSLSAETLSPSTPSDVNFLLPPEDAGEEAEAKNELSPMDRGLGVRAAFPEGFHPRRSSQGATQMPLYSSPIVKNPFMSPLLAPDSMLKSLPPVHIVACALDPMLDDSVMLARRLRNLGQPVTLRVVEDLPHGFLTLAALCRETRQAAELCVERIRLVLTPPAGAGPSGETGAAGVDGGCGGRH
How it was run: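 Full-length human HSL carrying a C-terminal His6 tag was expressed in High 5 insect cells via baculovirus and purified on Ni-NTA. Compounds from 3-fold DMSO series were mixed with 1.5 mM DMPT substrate suspension in 100 mM MOPS pH 7.2 with 0.2 mg/ml fatty acid-free BSA, then enzyme (15 ug/ml) was added for 20 minutes at 37 °C. Released thiol was detected with DTNB plus SDS/Triton X-100 (15 minutes, room temperature) at 405 nm.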

| IC50 [nM] | Compound |
| --- | --- |
| 360 | Cc1ccc(NC(=O)C2(N)CCN(C(=O)Nc3ccc(OC(F)(F)F)cc3)CC2)cc1 [Example 84, 4-Amino-piperidine-1,4-dicarboxylic acid 4-p-tolylamide 1-[(4-trifluoromethoxy-phenyl)-amide]; hydrochloride] |
| 230 | CC(C)c1ccc(NC(=O)C2(N)CCN(S(=O)(=O)c3ccc(C(C)C)cc3)CC2)cc1 [Example 83, 4-Amino-1-(4-isopropyl-benzenesulfonyl)-piperidine-4-carboxylic acid (4-isopropyl-phenyl)-amide; hydrochloride] |
| 40 | CN(C(=O)C1(O)CCN(Cc2ccccc2Cl)CC1)c1ccc(OC(F)(F)F)cc1 [Example 71, 1-(2-Chloro-benzyl)-4-hydroxy-piperidine-4-carboxylic acid methyl-(4-trifluoromethoxy-phenyl)-amide] |
| 290 | Cc1ccccc1S(=O)(=O)N1CCC(O)(C(=O)Nc2ccc(OC(F)(F)F)cc2)CC1 [Example 59, 4-Hydroxy-1-(toluene-2-sulfonyl)-piperidine-4-carboxylic acid (4-trifluoromethoxy-phenyl)-amide] |
| 40 | CC(C)c1ccc(NC(=O)C2(N)CCN(S(=O)(=O)c3ccccc3F)CC2)cc1 [Example 118, 4-Amino-1-(2-fluoro-benzenesulfonyl)-piperidine-4-carboxylic acid (4-isopropyl-phenyl)-amide] |
| 240 | CC(C)c1ccc(NC(=O)C2(N)CCN(Cc3cccc(F)c3)CC2)cc1 [Example 111, 4-Amino-1-(3-fluoro-benzyl)-piperidine-4-carboxylic acid (4-isopropyl-phenyl)-amide; hydrochloride] |
| 720 | CC(C)c1ccc(NC(=O)C2(O)CCN(C(=O)CC(C)(C)C)CC2)cc1 [Example 4, 1-(3,3-Dimethyl-butyryl)-4-hydroxy-piperidine-4-carboxylic acid (4-isopropyl-phenyl)-amide] |
| 810 | CC(C)(C)CC(=O)N1CCC(O)(C(=O)Nc2ccc(OC(F)(F)F)cc2)CC1 [Example 51, 1-(3,3-Dimethyl-butyryl)-4-hydroxy-piperidine-4-carboxylic acid (4-trifluoromethoxy-phenyl)-amide] |
| 660 | CC(C)CS(=O)(=O)N1CCC(O)(C(=O)Nc2ccc(OC(F)(F)F)cc2)CC1 [Example 54, 4-Hydroxy-1-(2-methyl-propane-1-sulfonyl)-piperidine-4-carboxylic acid (4-trifluoromethoxy-phenyl)-amide] |
| 70 | CCCc1ccc(NC(=O)C2(N)CCN(S(=O)(=O)c3ccccc3Cl)CC2)cc1 [Example 98, 4-Amino-1-(2-chloro-benzenesulfonyl)-piperidine-4-carboxylic acid (4-propyl-phenyl)-amide] |
| 750 | CCN(C(=O)C1(O)CCN(S(=O)(=O)c2ccccc2F)CC1)c1ccc(OC(F)(F)F)cc1 [Example 75, 1-(2-Fluoro-benzenesulfonyl)-4-hydroxy-piperidine-4-carboxylic acid ethyl-(4-trifluoromethoxy-phenyl)-amide] |
| 60 | CN(C(=O)C1(O)CCN(S(=O)(=O)c2ccccc2Cl)CC1)c1ccc(OC(F)(F)F)cc1 [Example 72, 1-(2-Chloro-benzenesulfonyl)-4-hydroxy-piperidine-4-carboxylic acid methyl-(4-trifluoromethoxy-phenyl)-amide] |
| 130 | CCc1ccc(NC(=O)C2(N)CCN(S(=O)(=O)c3ccccc3C(F)(F)F)CC2)cc1 [Example 145, 4-Amino-1-(2-trifluoromethyl-benzenesulfonyl)-piperidine-4-carboxylic acid (4-ethyl-phenyl)-amide] |
| 230 | CC(C)c1ccc(CN2CCC(N)(C(=O)Nc3ccc(C(C)C)cc3)CC2)cc1 [Example 115, 4-Amino-1-(4-isopropyl-benzyl)-piperidine-4-carboxylic acid (4-isopropyl-phenyl)-amide; hydrochloride] |
| 190 | O=C(Nc1ccc(OC(F)(F)F)cc1)C1(O)CCN(Cc2ccccc2F)CC1 [Example 58, 1-(2-Fluoro-benzyl)-4-hydroxy-piperidine-4-carboxylic acid (4-trifluoromethoxy-phenyl)-amide] |
| 360 | CC(C)c1ccc(NC(=O)C2(N)CCN(C(=O)c3ccc(Cl)cc3)CC2)cc1 [Example 125, 4-Amino-1-(4-chloro-benzoyl)-piperidine-4-carboxylic acid (4-isopropyl-phenyl)-amide] |
